Results from patent US20250206708A1, “AN OXAZIRIDINE PLATFORM FOR TARGETING FUNCTIONAL ALLOSTERIC METHIONINE SITES” (Novartis AG, priority 2022, published 2025).

Experiments:
[1] = system: MCF-7 cells; assay: Cell Counting Kit-8 cell viability assay in MCF-7; type: cell-based; conditions: Homo sapiens, MCF7; 24 h, CCK-8; read-out: EC50, decrease in cell viability of MCF-7 cells
Experimental: All cells were maintained as a monolayer in exponential growth at 37° C. in a 5% CO2 atmosphere. MCF-7 and HepG2 were maintained in Dulbecco's Modified Eagle Medium (DMEM, Gibco) supplemented with 10% (v/v) fetal bovine serum (FBS, Seradigm). HT-29 and SW-48 were maintained in RPMI 1640 Medium (Gibco) supplemented with 10% FBS.
All cells dosed with oxaziridine were treated using a 2% DMSO/media solution. Oxaziridines were dissolved in DMSO and used the same day as treatment. Media was removed from cells and replaced with fresh media containing oxaziridine in DMSO for a final concentration of 2% DMSO. Control wells were treated with 2% DMSO/media. Cells were incubated at 37° C. in a 5% CO2 atmosphere.
Commercially available Cell Counting Kit-8 Assay (Dojindo) was used to investigate cell viability after treatment with oxaziridines. Cells were plated in 96-well plates (black/clear bottom; Thermo Fisher) and grown to 75% confluency. Media was removed and replaced with media containing 2% DMSO and indicated compound concentration. Cells were allowed to incubate 24 h. To assess viability, media was removed and replaced with 100 μL media containing 10% CCK-8 assay solution. Plates were incubated at 37° C. in a 5% CO2 atmosphere for 1-4 h until an orange color was visible. Viability was quantified via plate reader (monofilter) with absorption at 450 nm.

[2] = target: T1, CDK4 (Homo sapiens, UniProt P11802); assay: Gel-based ABPP competition with Compound 303 probe on isolated CDK4; type: binding; conditions: Cy3 fluorescence readout
T1 sequence (P11802 whole entry): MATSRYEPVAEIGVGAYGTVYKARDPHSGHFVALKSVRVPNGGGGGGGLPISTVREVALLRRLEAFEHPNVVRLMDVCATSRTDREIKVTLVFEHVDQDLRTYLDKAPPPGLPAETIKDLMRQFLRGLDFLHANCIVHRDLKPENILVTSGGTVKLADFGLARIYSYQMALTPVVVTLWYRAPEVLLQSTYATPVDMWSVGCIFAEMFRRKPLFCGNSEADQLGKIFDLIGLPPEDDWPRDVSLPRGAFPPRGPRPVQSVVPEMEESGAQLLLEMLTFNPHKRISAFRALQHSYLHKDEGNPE
T1 sequence (P24385 whole entry partner): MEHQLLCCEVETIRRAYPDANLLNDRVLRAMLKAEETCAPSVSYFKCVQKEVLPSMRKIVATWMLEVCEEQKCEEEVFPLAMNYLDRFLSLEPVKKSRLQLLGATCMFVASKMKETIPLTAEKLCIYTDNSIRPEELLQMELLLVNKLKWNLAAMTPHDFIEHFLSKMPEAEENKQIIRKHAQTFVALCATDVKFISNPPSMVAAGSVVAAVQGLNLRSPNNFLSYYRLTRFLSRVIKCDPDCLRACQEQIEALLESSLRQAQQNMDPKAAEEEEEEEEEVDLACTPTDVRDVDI
Experimental: Activity-based protein profiling (ABPP) was performed as follows. CDK4 was diluted in PBS to 50 nM, then 50 μL was added to each well of a 96-well PCR plate. Ligands were dissolved fresh in DMSO to 5 μM, and 1 μL was added so each well contained a unique ligand at the indicated concentration. Wells were mixed and allowed to incubate 1 h at 23° C. […] Excess oxaziridine was quenched with N-acetyl methionine via addition of 1 μL of 10 mM DMSO stock (200 μM final), wells mixed and allowed to incubate 1 h at 23° C. A stock was prepared 1:5 of 12.5 μM DBCO-Cy3 in DMSO: 1.2% SDS/PBS. To each well was added 6 μL of this stock, the wells mixed and allowed to incubate overnight protected from light at 23° C. […] Samples were loaded and separated on precast 4-20% TGX gels and scanned by ChemiDoc MP for measuring in-gel fluorescence. […]
The oxaziridine fragment library from Example 8 was screened for methionine-directed modifiers of CDK4 via a gel-based ABPP platform as described in Example 3, seen in FIG. 7B. […] DBCO-Cy3 was then introduced by strain-promoted click chemistry to provide a fluorescence readout. The samples were subsequently separated via SDS-PAGE and fluorescence signals were normalized via silver stain to triage any covalent ligands that induced general protein aggregation, which would generate a false positive Cy3 signal, as shown in FIG. 5B. […]

[3] = target: T1, CDK4; assay: ADP-Glo luciferase-based in vitro activity assay on purified CDK4; type: biochemical; conditions: Rb (aa 773-928) substrate, read-out: IC50, inhibition of activity of purified CDK4 protein
Experimental: Effects of Compound 148 on in vitro activity of CDK4 were determined via commercially available ADP-Glo assay (Promega; cat no.V6930). Isolated CDK4 was provided by Novartis. Retinoblastoma protein (aa 773-928) was obtained from commercial sources (Millipore Sigma; 12-439). The assay kit protocol was followed as directed, with the addition of a quench step (addition of 1 μL of 25 μM N-Acetyl methionine) after incubation of protein with oxaziridine ligand.

[4] = system: CDK4; assay: 2D gel electrophoresis western blot of CDK4 T172 phosphorylation in MCF-7; type: cell-based, human; conditions: MCF-7 cells, 2D SDS-PAGE, spot 3 normalized to spot 1
Experimental: Serum-synchronized MCF-7 cells were treated with compound according to method outlined. Cells were monitored by eye for cell death and harvested once high-dose cells were round but not detached, about 2 hours. Media was removed and cells washed with HBSS. Trypsin was added to detach cells. Cells were transferred to a falcon tube containing 7 mL of complete DMEM and centrifuged at 1200 rpm for 2 min. Supernatant discarded and pellet gently resuspended in 1 mL PBS and transferred to an Eppendorf tube. Sample was spun once more, after which the pellet was quickly rinsed with ice cold MQ and spun a final time. Pellet was aspirated, flash frozen with LN2, and stored at −80° C.
SCell pellets were solubilized in cold 30 mM Tris buffer pH 8.5 containing 7 M urea, 2 M thiourea and 4% CHAPS with continuous vortexing until unfrozen and then kept agitated for 20 min. After centrifugation at 15,700 g for 10 min at 4° C., proteins were quantified. An equal volume of 2-D-sample buffer (7 M urea, 2 M thiourea, 2% CHAPS, 0.4% 3-10 Pharmalytes, and 0.4% DTT) was added to samples normalized to 150 μg proteins. […] The proteins were detected using Western Lightning Plus ECL (Perkin Elmer) and viewed in Fusion FX gel documentation system using the Solo7S camera (Vilber Lourmat, France).

- EC50 [1]: 330 µM
- IC50 [3]: ~0.2 µM
SMILES: O=C(N1CC2COCC2C1)N1OC1c1ccccc1 (stereo not shown) [Compound 148]
- competition with Compound 303 probe for CDK4 binding [2]: competition with the Compound 303 probe for CDK4 binding in a dose-dependent manner
- T172 phosphorylation status on CDK4 [4]: diminish T172 phosphorylation status on CDK4 in MCF-7 cells in a dose-dependent manner
